Laboratory results: BindingDB's records for doi:10.1046/j.1471-4159.1996.67010058.x (Cns Research, 1996)
Values joined by “and” are separate entries in the source; they are usually repeats but may differ in a detail not shown here. Equal values may be shown once.

Legend:
[1] = target: Metabotropic glutamate receptor 2 (Homo sapiens, UniProt Q14416)
[2] = target: Metabotropic glutamate receptor 1 (Homo sapiens, UniProt Q13255)
[3] = target: Metabotropic glutamate receptor 3 (Homo sapiens, UniProt Q14832)
Metabotropic glutamate receptor 3, sequence (Q14832 whole entry): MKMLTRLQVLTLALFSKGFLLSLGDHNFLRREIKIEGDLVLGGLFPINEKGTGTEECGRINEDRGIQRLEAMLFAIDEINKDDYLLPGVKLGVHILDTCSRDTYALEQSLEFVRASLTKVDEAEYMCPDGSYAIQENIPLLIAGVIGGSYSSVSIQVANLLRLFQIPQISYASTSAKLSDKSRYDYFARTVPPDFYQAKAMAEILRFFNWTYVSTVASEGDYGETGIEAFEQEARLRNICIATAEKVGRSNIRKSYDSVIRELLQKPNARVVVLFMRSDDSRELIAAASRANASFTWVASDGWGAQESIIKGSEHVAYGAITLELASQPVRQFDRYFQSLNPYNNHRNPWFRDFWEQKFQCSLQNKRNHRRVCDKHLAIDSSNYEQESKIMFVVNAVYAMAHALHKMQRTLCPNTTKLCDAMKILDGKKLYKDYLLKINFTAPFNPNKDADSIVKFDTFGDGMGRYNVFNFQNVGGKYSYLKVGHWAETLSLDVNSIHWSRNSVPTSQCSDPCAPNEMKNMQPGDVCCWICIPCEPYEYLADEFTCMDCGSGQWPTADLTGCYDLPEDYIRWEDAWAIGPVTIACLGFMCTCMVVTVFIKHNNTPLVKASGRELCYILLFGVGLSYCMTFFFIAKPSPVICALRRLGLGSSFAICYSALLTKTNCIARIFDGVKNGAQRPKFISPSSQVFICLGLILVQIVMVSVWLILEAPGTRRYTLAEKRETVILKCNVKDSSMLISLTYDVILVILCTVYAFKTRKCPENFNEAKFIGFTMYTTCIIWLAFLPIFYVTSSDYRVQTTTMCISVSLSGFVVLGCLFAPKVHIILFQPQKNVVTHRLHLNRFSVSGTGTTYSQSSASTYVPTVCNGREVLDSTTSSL

Metabotropic glutamate receptor 2, sequence (Q14416 whole entry): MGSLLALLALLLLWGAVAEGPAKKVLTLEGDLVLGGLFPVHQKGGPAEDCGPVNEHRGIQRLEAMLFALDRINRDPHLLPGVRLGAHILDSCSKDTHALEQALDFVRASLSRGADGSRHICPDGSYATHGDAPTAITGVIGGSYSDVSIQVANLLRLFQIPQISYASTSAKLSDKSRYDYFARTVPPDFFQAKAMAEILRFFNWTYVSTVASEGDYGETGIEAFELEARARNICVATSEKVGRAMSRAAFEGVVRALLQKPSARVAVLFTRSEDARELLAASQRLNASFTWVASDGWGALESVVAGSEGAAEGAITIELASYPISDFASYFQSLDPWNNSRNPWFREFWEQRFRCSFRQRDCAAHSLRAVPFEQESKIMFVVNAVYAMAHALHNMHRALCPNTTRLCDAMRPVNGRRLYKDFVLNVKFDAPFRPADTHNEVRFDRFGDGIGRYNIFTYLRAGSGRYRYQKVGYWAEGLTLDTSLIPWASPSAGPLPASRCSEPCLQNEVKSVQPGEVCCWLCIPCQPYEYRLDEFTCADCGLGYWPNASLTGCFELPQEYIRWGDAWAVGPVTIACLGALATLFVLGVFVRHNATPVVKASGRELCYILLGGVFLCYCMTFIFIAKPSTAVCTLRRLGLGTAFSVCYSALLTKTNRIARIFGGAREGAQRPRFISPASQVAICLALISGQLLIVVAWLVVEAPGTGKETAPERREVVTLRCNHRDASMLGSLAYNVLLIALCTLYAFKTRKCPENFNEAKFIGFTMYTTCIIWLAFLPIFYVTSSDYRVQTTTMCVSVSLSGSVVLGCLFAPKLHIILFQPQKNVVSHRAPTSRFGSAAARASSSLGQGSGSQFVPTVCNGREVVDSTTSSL
Metabotropic glutamate receptor 1, sequence (Q13255 whole entry): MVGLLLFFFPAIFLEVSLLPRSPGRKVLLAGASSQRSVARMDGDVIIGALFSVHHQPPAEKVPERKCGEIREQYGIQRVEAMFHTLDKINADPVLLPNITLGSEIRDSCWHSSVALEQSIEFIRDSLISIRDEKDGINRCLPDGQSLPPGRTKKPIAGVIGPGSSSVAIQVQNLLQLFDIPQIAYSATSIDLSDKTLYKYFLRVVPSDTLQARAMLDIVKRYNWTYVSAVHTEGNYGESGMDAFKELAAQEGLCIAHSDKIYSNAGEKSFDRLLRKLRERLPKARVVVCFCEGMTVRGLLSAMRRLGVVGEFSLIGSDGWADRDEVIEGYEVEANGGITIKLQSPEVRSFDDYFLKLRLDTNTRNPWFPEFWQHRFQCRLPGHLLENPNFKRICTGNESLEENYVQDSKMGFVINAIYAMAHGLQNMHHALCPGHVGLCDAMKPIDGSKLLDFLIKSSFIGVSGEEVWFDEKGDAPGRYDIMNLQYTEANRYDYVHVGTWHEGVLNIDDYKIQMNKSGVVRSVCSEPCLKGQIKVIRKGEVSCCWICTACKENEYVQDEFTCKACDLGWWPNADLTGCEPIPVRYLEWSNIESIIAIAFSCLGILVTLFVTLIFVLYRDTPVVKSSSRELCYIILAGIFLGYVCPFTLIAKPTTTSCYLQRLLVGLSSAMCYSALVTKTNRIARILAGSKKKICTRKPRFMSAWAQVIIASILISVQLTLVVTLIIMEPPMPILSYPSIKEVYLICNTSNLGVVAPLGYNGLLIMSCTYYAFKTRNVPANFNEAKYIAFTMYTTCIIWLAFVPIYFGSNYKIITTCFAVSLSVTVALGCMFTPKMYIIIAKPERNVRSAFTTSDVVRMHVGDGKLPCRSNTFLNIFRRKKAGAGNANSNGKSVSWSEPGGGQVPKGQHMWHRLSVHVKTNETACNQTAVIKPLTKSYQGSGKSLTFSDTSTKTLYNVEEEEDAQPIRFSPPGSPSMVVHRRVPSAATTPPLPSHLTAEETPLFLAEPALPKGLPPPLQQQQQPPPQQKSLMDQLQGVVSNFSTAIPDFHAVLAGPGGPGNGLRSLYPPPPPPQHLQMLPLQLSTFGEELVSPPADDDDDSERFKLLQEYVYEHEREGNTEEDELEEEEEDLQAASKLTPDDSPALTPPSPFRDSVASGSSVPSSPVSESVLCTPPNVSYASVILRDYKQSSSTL

Compound	Ki [1] [µM]	Ki [2] [µM]	Ki [3]
N[C@@H](Cn1oc(=O)[nH]c1=O)C(=O)O [2-amino-3-(3,5-dioxo[1,2,4]oxadiazolidin-2-yl)propionic acid]	0.42		
N[C@H](C(=O)O)[C@H]1C[C@H]1C(=O)O [L-CCG-IV]	> 10	3.47	
N[C@@]1(C(=O)O)CC[C@H](C(=O)O)C1 [1S, 3R-ACPD]	> 10		> 10 µM and 5.4 µM
